Here are results for four compounds from US8734816B2, “Porous nanoparticle supported lipid bilayer nanostructures” (STC.UNM, priority 2009, dated 2014).

Each structure is given as a SMILES string. Counter-ions that a name gives are not always drawn.

Data set [1] in a line: Lipid association with mesoporous silica nanoparticles. The conditions noted are these: <20 μg liposome per 0.5 mg silica particles; 5% DHPE-Texas Red label; neutral pH. The class given is physicochemical. The procedure: To measure the amount of lipid associated with silica nanoparticles as a function of lipid concentration, about 20 μL aliquots of 25 mg/mL silica nanoparticles were mixed with 1, 2, 3, 5, 7, 10, 20, and 30 μL of 2.5 mg/mL lipids. The lipids tested included DOPC, DOPS and DOTAP, all containing 5% DHPE-Texas Red labels. The mixtures were centrifuged. The Texas Red absorbance from the supernatant and the silica nanoparticles was measured.

A short description of data set [2]: Colloidal stability of the silica/lipid mixture as a function of lipid concentration (dynamic light scattering). The class given is physicochemical. The conditions noted are these: at low liposome contents. The procedure:
Depending on the relative amount of liposome added, silica particles first aggregated at low lipid concentrations to form large aggregates, which disappeared upon adding more liposomes. […] Similar observations were also reported for polystyrene beads, where aggregation was attributed to liposome mediated nanoparticle assembly at low lipid concentrations. Therefore, to form supported bilayers with good colloidal stability, excess amount of liposomes (50 μg liposome per 0.5 mg silica) were used.

A short description of data set [3]: Quantification of calcein encapsulated / concentration estimation inside mesoporous silica nanoparticles. The class given is physicochemical. The note with it: supported bilayers of different lipids. As for the experimental part:
To prepare supported bilayers that encapsulate calcein, the silica nanoparticles were first mixed with 250 μM calcein and liposomes were subsequently added. The remaining procedures were the same as described above.
Mesoporous silica nanoparticles (about 50 mg, no FITC modification) were dispersed in 2 mL water. About 5 μL of 100 mM calcein was added so the final dye concentration was ˜250 μM. The solution was divided into 50 μL aliquots and equal volumes of liposomes of different compositions were mixed to form supported bilayers. The supported bilayers were centrifuged and washed three times with 200 μL of 0.25×PBS to remove free calcein. Finally, about 50 μL of 1% SDS buffer solution was added to the precipitated supported bilayers to disrupt the lipid bilayer and release the calcein dye. About 150 μL of 0.25×PBS was then added to make the final volume to be about 200 μL and the tubes were centrifuged at 15000 rpm for about 2 minutes to precipitate silica nanoparticles. About 10 μL from the supernatant was transferred into a quartz microcuvette with a path length of about 1 cm to measure the absorbance at a wavelength of about 500 nm, which is proportional to the amount of calcein dye retained in the mesoporous silica nanoparticle.
Because the volume of this final solution was about 200 μL, the retained calcein in silica was then about 9 nmol. […]

In data set [4] the test system is Chinese Hamster Ovary (CHO) cells. Description: Cellular uptake of supported bilayers (protocells). Type of data set: cell-based. The conditions noted are these: green fluorescence of cells. As for the experimental part:
Cell Culture: Chinese Hamster Ovary cells (CHO) were obtained from the American Type Culture Collection (ATCC) and maintained in K-12 media supplemented with about 10% fetal bovine serum, about 1% penicillin and about 1% streptomycin. The media were changed every two to three days and the cells were passaged by trypsinization. To prepare samples for confocal imaging, round glass cover slips were used for cell growth. The glass slides were treated with 0.1M KOH for at least 24 hours before use. Cells in the media were dropped onto the cover slips and the slips were kept in Petri dishes. The cells were kept in an incubator at 37° C. with 5% CO2 and 95% humidity. Cellular uptake of supported bilayers (protocells): about 1 mL of serum free media was warmed to about 37° C. and about 10 μL of the above prepared supported bilayers were added and vortexed. To study the uptake of supported bilayers by CHO cells, the cells were grown to ˜70% confluence. The old media was removed and fresh media with supported bilayers were introduced. The cells were incubated for about four hours at about 37° C. and free particles were washed away with PBS and media before imaging. Confocal fluorescence microscopy: A Bio-Rad Radiance 2100 confocal fluorescence microscope system was used for imaging cells. […]

As for `CCCCCCCC/C=C\CCCCCCCC(=O)OC[C@H](COP(=O)([O-])OCC[N+](C)(C)C)OC(=O)CCCCCCC/C=C\CCCCCCCC` [DOPC, 1,2-Dioleoyl-sn-Glycero-3-Phosphocholine], the “association of liposomes with silica nanoparticles” value (shortened to “association of liposomes”) in data set [1] is reported as “almost quantitatively associated”. Besides, the “average size of particles” value in data set [2] is “significant increase”.
In the case of `CCCCCCCC/C=C\CCCCCCCC(=O)OC[C@H](COP(=O)(O)OC[C@H](N)C(=O)O)OC(=O)CCCCCCC/C=C\CCCCCCCC` [DOPS, 1,2-Dioleoyl-sn-Glycero-3-[Phospho-L-Serine] (Sodium Salt)], in data set [1], the “association of liposomes” value is recorded as “did not associate”.
For the compound `CCCCCCCC/C=C\CCCCCCCC(=O)OCC(C[N+](C)(C)C)OC(=O)CCCCCCC/C=C\CCCCCCCC.[Cl-]` (stereo not shown) [DOTAP, 1,2-Dioleoyl-3-Trimethylammonium-Propane (Chloride Salt)], in data set [1], the “association of liposomes” value is reported as “almost quantitatively associated”. In data set [3], the “calcein encapsulation efficiency (comparison of lipids)” value is “highest”. Also, the “average size of particles” value in data set [2] was “significant increase”.
As for `O=C(O)CN(CC(=O)O)Cc1cc2c(cc1O)Oc1cc(O)c(CN(CC(=O)O)CC(=O)O)cc1C21OC(=O)c2ccccc21` [calcein], the “uptake of calcein into CHO cells” value in data set [4] was “can not take”.
